In patent US7220822B2, “CD28 mimetics for blocking T cell mediated immune reactions” (The Ohio State University, priority 2000, dated 2007):
Like-named read-outs stand apart in the source and are kept apart here. Square brackets hold non-standard residues; d marks the D form. Peptide text beside a SMILES is read from it.

Experiments:
CD80-Ig = biological target: T1, CD80-Ig (Homo sapiens, UniProt P33681); test: Direct kinetic analysis of CD28 peptide binding to immobilized CD80-Ig by surface plasmon resonance (BIACORE); details: for maximum response units obtained for binding to CD80-Ig: SPR direct binding; for kd: direct binding; for kon: pH 7.4, direct binding, read-out: ka
T1 construct: extracellular domain of CD80 fused with the constant region of mouse IgG1 heavy chain
T1 sequence (P33681 35-242 limits assumed, other chains not shown): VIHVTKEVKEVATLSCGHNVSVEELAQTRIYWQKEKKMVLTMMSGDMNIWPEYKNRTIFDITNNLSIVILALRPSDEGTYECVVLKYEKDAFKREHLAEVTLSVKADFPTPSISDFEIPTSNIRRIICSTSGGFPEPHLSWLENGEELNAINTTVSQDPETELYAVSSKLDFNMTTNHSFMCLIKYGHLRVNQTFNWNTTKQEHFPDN
Experimental: Binding experiments were performed by surface plasmon resonance (SPR) on an instrument sold under the trademark BIACORE™ from Pharmacia Biosensor (Uppasala, Sweden).
CD80-Ig (extracellular domain of CD80 fused with the constant region of mouse IgG1 heavy chain) at 35 μg/ml in 10 mM sodium acetate buffer, pH 4.2, was coupled to a research grade CM 5 sensor chip using a standard amine coupling procedure with the following modifications (38). To reduce the immobilization level of the ligand, the surface was activated for 3 (instead of 7) minutes with N-hydroxysuccinamide and […]. […] Following coupling, noncovalently bound ligand was removed by washing twice with 5 mM NaOH.
The analytes were also injected at the same concentration and injection times over an empty flow cell with nothing immobilized.
Data analysis was performed with BIAEVALUATION™ software version 2.1(Pharmacia Biosensor AB). […] Prior to kinetic analysis, data were adjusted to zero baseline level by subtracting the background responses obtained by injection of the analytes through a control flow cell with no ligand immobilized. First, the dissociation rate constant, kd, (units: s^−1) was determined, by fitting experimental data from the buffer flow part of the sensogram to the equation R(t)=R1*e^−kd*(t^0^−t^1^) (1) where t0 is the injection time, R1 is the response level at the start of dissociation time t1 and kd is the dissociation rate constant.
The kd value obtained was used as a constant during the analysis of the injection phase data. Binding data above the noise level was selected by converting the sensogram to a plot of the logarithm of the binding rate vs time (dR/dt vs. time). The ka was determined by nonlinear curve fitting of the following equation R(t)=Req*{1−e^−(k^a^*C+k^d^)*(t) (2) where R(t) is the response at time t, Req is the steady state response level, ka is the association rate constant (units: M^−1s^−1), kd is the dissociation rate constant and C is the concentration of the injected peptide analyte. An offset was added to account for the refractive index differences between the analyte and the running buffer.
After analyzing sensograms obtained from injections of increasing concentrations of peptide analytes or CD28-Ig, the experimental data was analyzed using the BIAsimulation software 2.1. A plot of the logarithm of (dR/dt) against time was calculated from the sensograms, and then the slopes at different concentrations were plotted against the concentrations of the peptide analyte. Different angles obtained of the linear lines represent the variation of affinities, which gives the association rate constant (ka) from the equation ln dR/dt=ln(kaCR max)−KaC+kd)t (4) where dR/dt is the rate of change of the SPR signal, C is the concentration of the analyte, Rmax is the maximum analyte binding capacity in RU and R is the SPR signal in RU at time t. The dissociation rate constant is obtained from the equation Kd=kd/ka (5)

B10.PL mice with EAE = test: EAE in B10.PL mice immunized with GP-MBP in CFA, clinical score; format: in vivo, mouse; details: for clinical course (in words): single i.v. 500 μg on day 14 post-immunization, observed 26 days
Experimental: Female B10.PL mice (6–8 wk old) were obtained from The Jackson laboratory (Bar Harbor, Me.) and housed at the Ohio State University, (Columbus, Ohio).
Mice were injected subcutaneously over four sites on the flank with an emulsion containing 200 μg of guinea-pig-MBP in CFA containing 200 μg heat killed Mycobacterium tuberculosis, Jamaica strain. Pertussis toxin (List Biological, Campbell, Calif.) at 150 ng in 0.2 ml of PBS was given intraperitoneally at the time of immunization and 48 hours later. Animals were observed daily for clinical signs and scored as follows: 1, limp tail or waddling gait with tail tonicity; 2, waddling gait with limp tail (ataxia); 2.5 ataxia with partial paralysis of one limb, 3, partial hind-limb paralysis, 3.5 full paralysis of one limb with partial paralysis of the second limb, 4, full paralysis of two limbs, 4.5 moribund and 5, death. All mice immunized with MBP (200 μg) in CFA developed clinical disease varying between ataxia and complete hind limb paralysis by day 14 post-immunization. They were then distributed randomly into six groups with mean clinical score of each group approximately the same.
Groups of mice were left untreated or injected intravenously with 500 μg of EL CD28 or RI CD28 peptide mimetics, or LCD28, RLCD28 and DCD28 peptides. The mean clinical score of untreated mice continued to increase reaching a maximum of 3.4 on day 20. Similarly the disease continued to progress in mice treated with LCD28, RLCD28 and DCD28, reaching mean maximal clinical score of 3.8 (day 18), 3.4 (day 16 ) and 3.7 (day 16) respectively.
The biological activity of synthetic CD28 peptide analogues during antigen priming in vivo in EAE was then shown. B10.PL mice immunized with GP-MBP (200 μg) in CFA were either left untreated or injected intravenously 500 μg of EL CD28 or RI CD28 peptide mimetics or LCD28, RLCD28 and DCD28 peptides on the day of immunization. The vehicle treated mice and mice treated with: LCD28, RL CD28 and D CD28 peptide had maximum disease incidence of 100%, 100%, 91.5% and 91.5% and maximum mean cumulative score per day of 1.9, 1.8, 1.7 and 2 respectively. […] The effect of RI CD28 peptide injection lasted for the duration of observation (37 days) in one experiment.

[1] = single i.v. 500 μg on the day of immunization

SMILES | maximum response units obtained for binding to CD80-Ig (CD80-Ig) [RU] | kd (CD80-Ig; C 1.50E+03 nM) [s⁻¹] | kd (CD80-Ig; C 3.00E+03 nM) [s⁻¹] | kd (CD80-Ig; C 3.75E+02 nM) [s⁻¹] | kd (CD80-Ig; C 6.00E+03 nM) [s⁻¹] | kd (CD80-Ig; C 7.50E+02 nM) [s⁻¹] | kon (CD80-Ig; C 1.50E+03 nM) [M⁻¹ s⁻¹] | kon (CD80-Ig; C 3.00E+03 nM) [M⁻¹ s⁻¹] | kon (CD80-Ig; C 3.75E+02 nM) [M⁻¹ s⁻¹] | kon (CD80-Ig; C 6.00E+03 nM) [M⁻¹ s⁻¹] | kon (CD80-Ig; C 7.50E+02 nM) [M⁻¹ s⁻¹] | clinical course (in words) (B10.PL mice with EAE) | maximum disease incidence (B10.PL mice with EAE; [1]) [%] | maximum mean cumulative score per day (B10.PL mice with EAE; [1]) | kd (CD80-Ig; C 1.00E+03 nM) [s⁻¹] | kon (CD80-Ig; C 1.00E+03 nM) [M⁻¹ s⁻¹] | duration of effect of injection (B10.PL mice with EAE; single i.v. 500 μg on the day of immunization, one experiment, duration of observation) [days]
CC[C@H](C)[C@H](NC(=O)[C@@H](NC(=O)CNC(=O)[C@H](CC(N)=O)NC(=O)[C@H](CO)NC(=O)[C@H](CCCNC(=N)N)NC(=O)[C@H](CCC(=O)O)NC(=O)[C@H](CC(N)=O)NC(=O)[C@H](CC(=O)O)NC(=O)[C@H](CC(C)C)NC(=O)[C@H](Cc1ccc(O)cc1)NC(=O)[C@@H]1CCCN1C(=O)[C@@H]1CCCN1C(=O)[C@@H]1CCCN1C(=O)[C@H](Cc1ccc(O)cc1)NC(=O)[C@H](CCSC)NC(=O)[C@H](Cc1ccccc1)NC(=O)[C@H](CCC(=O)O)NC(=O)[C@@H](NC(=O)[C@H](CCCCN)NC(C)=O)[C@@H](C)CC)[C@@H](C)O)C(N)=O [EL CD28] (Ac-KIEFMYPPPYLDNERSNGTI-NH2) | 667.5 | 0.242 | 0.214 | 0.399 | 0.273 | 0.274 | 115000 | 137000 | 246000 | 111000 | 110000 | continued to show clinical improvement | 70 | 1.1 |  |  | 
CC[C@@H](C)[C@@H](NC(C)=O)C(=O)N[C@@H](C(=O)NCC(=O)N[C@H](CC(N)=O)C(=O)N[C@H](CO)C(=O)N[C@H](CCCNC(=N)N)C(=O)N[C@H](CCC(=O)O)C(=O)N[C@H](CC(N)=O)C(=O)N[C@H](CC(=O)O)C(=O)N[C@H](CC(C)C)C(=O)N[C@H](Cc1ccc(O)cc1)C(=O)N1CCC[C@@H]1C(=O)N1CCC[C@@H]1C(=O)N1CCC[C@@H]1C(=O)N[C@H](Cc1ccc(O)cc1)C(=O)N[C@H](CCSC)C(=O)N[C@H](Cc1ccccc1)C(=O)N[C@H](CCC(=O)O)C(=O)N[C@@H](C(=O)N[C@H](CCCCN)C(N)=O)[C@H](C)CC)[C@H](C)O [RI CD28] (Ac-[dI][dT]G[dN][dS][dR][dE][dN][dD][dL][dY][dP][dP][dP][dY][dM][dF][dE][dI][dK]-NH2) | 444.2 | 0.183 | 0.146 |  | 0.228 |  | 141000 | 122000 |  | 112000 |  | continued to show clinical improvement | 60 | 0.74 | 0.205 | 171000 | 37
